Assay results from patent publication US20090136470A1, “REGULATORY T CELLS AND METHODS OF MAKING AND USING SAME” (priority 2007, published 2009).

How the values were obtained:
CD4^+CD25^−T cells [1] = test: CTLA-4, CD103, CCR9 and CD25 staining of CD4 T cells stimulated with spleen APCs plus TGF-β1 and/or RA; type: cell-based, mouse
Description: (§1) For CD4^+CD25^− T cell isolation, spleens were removed, teased into cell-single suspensions and filtered through a 70 μm cell strainer (Fisher Scientific, USA). CD4^+CD25^−T cells were isolated by negative selection after incubation with a mix of specific biotin-conjugated mAbs (anti-CD8, CD11b, CD11ε, CD25, CD45R (B220), NK1.1, and TER119) at 1/200 dilution, and anti-biotin magnetic microbeads (25-40 μl per spleen) (Miltenyi Biotec, USA).
APCs were isolated from spleen of C57BL/6 mice by negative selection using CD90.2 (Thy1.2) magnetic microbeads to deplete T cells (Miltenyi Biotec).
(§2) The culture medium used for dendritic cell-T cell cultures was Iscove's modified Dulbecco medium (IMDM) (Gibco, USA) supplemented with 10% heat-inactivated FCS, 2 mM L-glutamine, 100 U/ml penicillin, 100 μg/ml streptomycin, and 5 mM β-mercaptoethanol (all Sigma, USA). […] For dendritic cell-T cell cultures, 2×10^4 dendritic cells and 1×10^5 T cells were cultured in a volume of 200 μl (96-well plates). For irradiated APC-T cell cultures, 5×10^5 APCs and 1×10^5 T cells were cultured in a volume of 200 μl in 96-well plates (2×10^6 APCs and 0.5×10^6 T cells per well in 48-well plates). […] For the study shown in FIG. 4A, after sorting of naive CD4^+ cells (CD25^−CD44^lowCD62L^+), cells were washed twice in PBS+0.1% BSA, counted and labeled with 2 μM of CFSE (Carboxyfluorescein diacetate, succinimidyl ester) (Molecular Probes, USA) at a concentration of 5−10×10^6 cells per ml in PBS-0.1% BSA.
(§3) To block non-specific staining, the 2.4G2 anti-CD16/32 antibody was added. […] For intracellular cytokine staining, cells obtained from in vitro cultures or isolated IELs were incubated for 4-5 hours with 50 ng/ml PMA, 750 ng/ml Ionomycin (both Sigma, USA) and 10 μg/ml Brefeldin A (Invitrogen, USA) in a tissue culture incubator at 37° C.

[2] = tested on: CD4^+T cells from small intestine lamina propria and spleen; test: Oral Listeria monocytogenes infection (and naïve mice) treated with RA or LE540: IL-17^+ and Foxp3^+ CD4 T cells; type: in vivo, mouse
Text: Listeria monocytogenes (strain WT LMOVA) was used. Mice were orally infected (gavage) with 5×10^8 CFU of L. monocytogenes. Mice received i.p. injections of vehicle, RA or LE540 on the same day and 2 days after infection. Mice were sacrificed 5 days post-infection for analysis.
Every second day, in a interval of two weeks, naïve mice received gavage of either vehicle, RA or LE540.
Liver lymphocytes were isolated using 37.5% isotonic Percoll (GE Healthcare, USA), as previously described [Y. Kinjo et al, Nat Immunol 7, 978 (2006)]. Intestinal lymphocytes were isolated and prepared as previously described [Aranda et al., J Immunol 158, 3464 (1997)]. Briefly, small and large intestines were removed and placed in chilled HBSS media containing 5% FCS. The intestines were carefully cleaned from the mesentery and flushed of fecal content. Intestines were opened longitudinally and then cut into 1 cm pieces. The intestinal tissue was transferred to a 250-ml Erlenmeyer flasks containing 25 ml of preheated HBSS complemented with 2% FCS and 1 mM DTT (Sigma, USA) and shaken at 200 rpm for 40 min at 37° C. The tissue suspension was passed through a stainless steel sieve into 50-ml conical tubes and the cells were pelleted by centrifugation at 1200 rpm for 10 min at 4° C. The cell pellet was resuspended in complete HBSS, layered over a discontinuous 40/70% Percoll gradient, and centrifuged at 2000 rpm for 30 min. Cells from the 40/70% interface were collected, washed and resuspended in complete RPMI media. These purified cells constituted the intraepithelial lymphocyte (IEL) population. To isolate the lamina propria lymphocytes (LPL), the remaining intestinal tissue in the stainless steel sieve was minced and transferred to conical tubes. The minced pieces were resuspended in 20 ml of complete RPMI containing 1 mg/ml of collagenase (Sigma, USA) and shaken at 200 rpm for 40 min at 37° C. The tissue suspension was collected and passed through a 70 μm cell strainer and the cells were pelleted by centrifugation at 1200 rpm. The cells were then resuspended and layered onto a 40/70% Percoll gradient, centrifugated and processed as described above for the IEL preparation.
as §3
For Foxp3 staining, no stimulation with PMA/Ionomycin was performed, with the exceptions of FIGS. 8B and 9A. In these cases, the time of incubation with PMA/Ion was reduced to 3.5 hours. Intracellular Foxp3 staining was performed as per the eBioscience's Foxp3-staining kit protocol.

CD4^+CD25^−T cells [3] = test: TGF-β-dependent Foxp3 induction (Treg differentiation) in CD4 T cells with dendritic cells or APCs; type: cell-based, mouse
Description: as §1
For dendritic cells isolation, spleen and MLN were chopped and digested by collagenase type D (Roche, USA) for 30 min at room temperature. Digested tissues were treated with 5 mM of EDTA for additional 5 min and mashed through a 70 μm cell strainer. Subsequently, CD11c^+ cells were enriched by positive selection using anti-CD11c microbeads according to the manufacturer's protocol (Miltenyi Biotec, USA). Enriched populations were stained with CD45-APC, CD 11c-PE, I-A^b-FITC and TCR β and sorted for TCRβ^−CD45^+CD11c^+I-Ab^+ by flow cytometry using a FACS-DIVA cell sorter (USA).
as §2
(§4) For Foxp3 staining, no stimulation with PMA/Ionomycin was performed, with the exceptions of FIGS. 8B and 9A. […]

naïve CD4^+T cells = test: Re-stimulation (secondary cultures) of in vitro differentiated CD4 T cells: Foxp3 and IL-17 staining; type: cell-based, mouse; settings: cells first stimulated with TGF-β and IL-6, rested
Description: as §2, §3, §4

For `CC1=C(/C=C/C(C)=C/C=C/C(C)=C/C(=O)O)C(C)(C)CCC1` [RA, All-trans retinoic acid], the “expression of CTLA-4 on TGF-β-generated Foxp3^+ cells” value (CD4^+CD25^−T cells [1]) was “promoted the expression of CTLA-4”, the “induction of CTLA-4 on Foxp3^− and Foxp3^+ activated cells (early)” value (CD4^+CD25^−T cells [1]; OT-II CD4 T cells, spleen APCs, TGF-β and RA) was “delayed” and the “CTLA-4 and Foxp3 phenotype of the majority of cells at later time-points” value (CD4^+CD25^−T cells [1]; OT-II CD4 T cells, spleen APCs, cultured with TGF-β and RA) was “both CTLA-4 and Foxp3^+”. For the same compound, the “TGF-β-mediated CD103 expression on CD4 cells” value (CD4^+CD25^−T cells [1]; soluble α-CD3ε, spleen APCs, TGF-β1) was “greatly enhanced”, the “Th-17 mucosal T cells (IL-17 staining of CD4^+T cells, small intestine lamina propria)” value ([2]; 5 days after oral L. monocytogenes infection, i.p. days 0 and 2, RA 300 μg/mouse, LE540 100 μg/mouse) was “measurable reduction” and the “differentiation / number of mucosal Foxp3^+Treg cells (small intestine lamina propria)” value ([2]; Lm challenged mice, 5 days after oral infection) was “not found to measurably enhance”. For the same compound, the “spleen Foxp3^+CD4 cells” value ([2]; Lm infected mice (2 i.p. injections) and naïve mice (2-week gavage)) was “No effect”, the “TGF-β-dependent Foxp3 induction by MLN dendritic cells” value (CD4^+CD25^−T cells [3]; OT-II CD4 cells, OVAp, TGF-β1, LE135 1 μM, RA 100 nM) was “enhanced” and the “TGF-β-dependent Foxp3 induction under low amounts of TGF-β” value (CD4^+CD25^−T cells [3]; TGF-β 0.5 ng/ml, TCR-transgenic CD4 cells) was “still enhances”. The “committed Th-17 cells in secondary cultures” value (naïve CD4^+T cells) was “also suppressed committed Th-17 cells”.
